Patent US4226883A, “Carbamate derivatives and method for manufacture thereof” (priority 1974, dated 1980)
Like-named read-outs stand apart in the source and are kept apart here.

Experiments:
[1] = test system: green rice leafhoppers of the strain RN; test: Test Example 3: dust spray test (20 mesh metal gauze cylinder); format: in vivo, Nephotettix cincticeps; conditions: for Effect of individual compound (RN), death ratio (%) (Table 9): dust, compound alone, RN strain; for death ratio (%), mixture with Compound No. 1 / death ratio (%), mixture with Compound No. 6* / death ratio (%), mixture with Compound No. 24* / death ratio (%), mixture with Compound No. 35* / death ratio (%), mixture with Compound No. 40* / death ratio (%), mixture with Compound No. 49* / death ratio (%), mixture with Compound No. 81* / death ratio (%), mixture with Compound No. 118* / death ratio (%), mixture with Carbofuran / death ratio (%), mixture with Methomyl: Table 9, RN; for death ratio (%), mixture with Compound No. 1: dust mixed with 1; for death ratio (%), mixture with Compound No. 6*: dust mixed with 6*; for death ratio (%), mixture with Compound No. 24*: dust mixed with 24*; for death ratio (%), mixture with Compound No. 35*: dust mixed with 35*; for death ratio (%), mixture with Compound No. 40*: dust mixed with 40*; for death ratio (%), mixture with Compound No. 49*: dust mixed with 49*; for death ratio (%), mixture with Compound No. 81*: dust mixed with 81*; for death ratio (%), mixture with Compound No. 118*: dust mixed with 118*; for death ratio (%), mixture with Carbofuran: dust mixed with Carbofuran; for death ratio (%), mixture with Methomyl: dust mixed with Methomyl
Description: The insecticides in the form of dust were tested for insecticidal activity.
The test for insecticidal activity was performed by the following procedure. […] The dust of a test compound (pulverized by means of a shaking pulverizer made by Taira Kosakusho, Ltd.) was applied onto the tube contents at a prescribed rate by spraying from outside the metal gauze by means of a bell-jar duster. The dust of the test compound was prepared uniformly mixing 2 parts of the dust of the individual compound or 1 part each of the dusts of the mixture components (total 2 parts) and 98 parts of a carrier obtained by mixing talc and clay in equal volumes.

[2] = test system: resistant green rice leafhoppers (R); conditions: ratio of the resistant strain to the susceptible strain (LD50); 1440 min
Description: (1) A 20-mg portion of a given test compound was weighed out and dissolved in 10 ml of acetone. The resultant solution was diluted at proper times with acetone.
(2) With a micro-syringe, the acetone solution of the test compound was topically applied to the thoracic region of female green rice leafhoppers at a fixed dose of 0.2 μl per head.
(3) The female green rice leafhoppers thus treated were placed in a plastic cup prepared in advance (measuring 7 cm in diameter and 3.5 cm in depth and containing rice seeds) and kept at a constant temperature of 26±1° C. After 24 hours' standing, the dead insects were counted.
In the case of a mixed insecticide, the LD50 was shown as a total dosage.

[3] = 2% dust, 250 mg, 24 hr, read-out: Mortality (%) after 24 hr., 250 mg Spray (Table 7)
[4] = 2% dust, 100 mg, 24 hr, read-out: Mortality (%) after 24 hr., 100 mg Spray (Table 7)
[5] = Table 8, dust 100 mg, 24 hr, read-out: Mortality (%) after 24 hr., Spray Volume 100 mg
[6] = Table 8, dust 250 mg, 24 hr, read-out: Mortality (%) after 24 hr., Spray Volume 250 mg

CNC(=O)Oc1cccc2c1OC(C)(C)C2 [Carbofuran, 2,3dihydro-2,2-dimethyl-benzofuran-7-yl-N-methylcarbamate, reference compound]
Effect of individual compound (RN), death ratio (%) (Table 9) [1]: 40.0%

C=CCNC(=O)Oc1ccccc1C(C)C [Compound 5, 2-isopropylphenyl-N-allylcarbamate]
Insecticidal Activity R/S (resistant ratio) [2]: 3.1

CCNC(=O)Oc1ccccc1C(C)CC (stereo not shown) [Compound 7, 2-sec-butylphenyl-N-ethylcarbamate]
Insecticidal Activity R/S (resistant ratio) [2]: 2.6

C=CCNC(=O)Oc1ccccc1C(C)CC (stereo not shown) [Compound 10, 2-sec-butylphenyl-N-allylcarbamate]
Insecticidal Activity R/S (resistant ratio) [2]: 4.3 | mortality at 250 mg/cylinder [1, 3]: 100%

CCCNC(=O)Oc1cccc(C(C)C)c1 [Compound 13, 3-isopropylphenyl-N-n-propylcarbamate]
Insecticidal Activity R/S (resistant ratio) [2]: 1.4

CNC(=O)Oc1cccc(C)c1 [Compound 24, 3-methylphenyl-N-methylcarbamate, reference compound]
Insecticidal Activity R/S (resistant ratio) [2]: 9.9 | mortality at 100 mg/cylinder [1, 4]: 0% | mortality at 250 mg/cylinder [1, 3]: 20% | mortality at 100 mg/cylinder [1, 5]: 0% | mortality at 250 mg/cylinder [1, 6]: 20% | Effect of individual compound (RN), death ratio (%) (Table 9) [1]: 0%

CCNC(=O)Oc1cccc(C)c1 [Compound 25, 3-methylphenyl-N-ethylcarbamate]
Insecticidal Activity R/S (resistant ratio) [2]: 3.7

C=CCNC(=O)Oc1cccc(C)c1 [Compound 28, 3-methylphenyl-N-allylcarbamate]
Insecticidal Activity R/S (resistant ratio) [2]: 1.8 | mortality at 100 mg/cylinder [1, 4]: 60% | mortality at 250 mg/cylinder [1, 3]: 100%

CCCNC(=O)Oc1cccc(CC)c1 [Compound 31, 3-ethylphenyl-N-n-propylcarbamate]
Insecticidal Activity R/S (resistant ratio) [2]: 0.5

CCCNC(=O)Oc1cccc(C(C)(C)C)c1 [Compound 33, 3-tert-butylphenyl-N-n-propylcarbamate]
Insecticidal Activity R/S (resistant ratio) [2]: 1.5

CNC(=O)Oc1ccc(C)c(C)c1 [Compound 35, 3,4-dimethylphenyl-N-methylcarbamate, reference compound]
Insecticidal Activity R/S (resistant ratio) [2]: 4.7 | mortality at 100 mg/cylinder ([1]; 24 h, read-out: Mortality (%) after 24 hr., 100 mg Spray (Table 7)): 0% | mortality at 250 mg/cylinder ([1]; 24 h, read-out: Mortality (%) after 24 hr., 250 mg Spray (Table 7)): 0% | mortality at 100 mg/cylinder ([1]; 24 h, read-out: Mortality (%) after 24 hr., Spray Volume 100 mg): 0% | mortality at 250 mg/cylinder ([1]; 24 h, read-out: Mortality (%) after 24 hr., Spray Volume 250 mg): 0%

CCNC(=O)Oc1ccc(C)c(C)c1 [Compound 36, 3,4-dimethylphenyl-N-ethylcarbamate]
Insecticidal Activity R/S (resistant ratio) [2]: 3.3 | mortality at 100 mg/cylinder [1, 4]: 55% | mortality at 250 mg/cylinder [1, 3]: 80%

C=CCNC(=O)Oc1ccc(C)c(C)c1 [Compound 39, 3,4-dimethylphenyl-N-allylcarbamate]
Insecticidal Activity R/S (resistant ratio) [2]: 0.8 | mortality at 100 mg/cylinder [1, 4]: 50% | mortality at 250 mg/cylinder [1, 3]: 60%

CNC(=O)Oc1cc(C)cc(C)c1 [Compound 40, 3,5-dimethylphenyl-N-methylcarbamate, reference compound]
Insecticidal Activity R/S (resistant ratio) [2]: 5.3 | mortality at 100 mg/cylinder [1, 4]: 5% | mortality at 250 mg/cylinder [1, 3]: 15% | mortality at 100 mg/cylinder [1, 5]: 5% | mortality at 250 mg/cylinder [1, 6]: 15% | Effect of individual compound (RN), death ratio (%) (Table 9) [1]: 0%

CCCNC(=O)Oc1ccccc1OC [Compound 77, 2-methoxyphenyl-N-n-propylcarbamate]
death ratio (%), mixture with Compound No. 1 [1]: 95.0% | death ratio (%), mixture with Compound No. 6* [1]: 100% | death ratio (%), mixture with Compound No. 24* [1]: 100% | death ratio (%), mixture with Compound No. 35* [1]: 100% | death ratio (%), mixture with Compound No. 40* [1]: 95.0% | death ratio (%), mixture with Compound No. 49* [1]: 50.0% | death ratio (%), mixture with Compound No. 81* [1]: 80.0% | death ratio (%), mixture with Compound No. 118* [1]: 100% | death ratio (%), mixture with Carbofuran [1]: 100% | death ratio (%), mixture with Methomyl [1]: 100% | Effect of individual compound (RN), death ratio (%) (Table 9) [1]: 45.0%

CCCNC(=O)Oc1ccccc1OCC [Compound 80, 2-ethoxyphenyl-N-n-propylcarbamate]
death ratio (%), mixture with Compound No. 1 [1]: 65.0% | death ratio (%), mixture with Compound No. 6* [1]: 60.0% | death ratio (%), mixture with Compound No. 24* [1]: 57.5% | death ratio (%), mixture with Compound No. 35* [1]: 65.0% | death ratio (%), mixture with Compound No. 40* [1]: 55.0% | death ratio (%), mixture with Compound No. 49* [1]: 15.0% | death ratio (%), mixture with Compound No. 81* [1]: 60.0% | death ratio (%), mixture with Compound No. 118* [1]: 70.0% | death ratio (%), mixture with Carbofuran [1]: 85.0% | death ratio (%), mixture with Methomyl [1]: 75.0% | Effect of individual compound (RN), death ratio (%) (Table 9) [1]: 0%

CCNC(=O)Oc1ccccc1OC(C)C [Compound 82, 2-isopropoxyphenyl-N-ethylcarbamate]
death ratio (%), mixture with Compound No. 1 [1]: 25.0% | death ratio (%), mixture with Compound No. 6* [1]: 50.0% | death ratio (%), mixture with Compound No. 24* [1]: 45.0% | death ratio (%), mixture with Compound No. 35* [1]: 60.0% | death ratio (%), mixture with Compound No. 40* [1]: 45.0% | death ratio (%), mixture with Compound No. 49* [1]: 15.0% | death ratio (%), mixture with Compound No. 81* [1]: 55.0% | death ratio (%), mixture with Compound No. 118* [1]: 80.0% | death ratio (%), mixture with Carbofuran [1]: 80.0% | death ratio (%), mixture with Methomyl [1]: 85.0% | Effect of individual compound (RN), death ratio (%) (Table 9) [1]: 15.0%

CCCCNC(=O)Oc1ccccc1OC(C)C [Compound 84]
death ratio (%), mixture with Compound No. 1 [1]: 0% | death ratio (%), mixture with Compound No. 6* [1]: 15.0% | death ratio (%), mixture with Compound No. 24* [1]: 5.0% | death ratio (%), mixture with Compound No. 35* [1]: 10.0% | death ratio (%), mixture with Compound No. 40* [1]: 5.0% | death ratio (%), mixture with Compound No. 49* [1]: 0% | death ratio (%), mixture with Compound No. 81* [1]: 100% | death ratio (%), mixture with Compound No. 118* [1]: 67.5% | death ratio (%), mixture with Carbofuran [1]: 55.0% | death ratio (%), mixture with Methomyl [1]: 70.0% | Effect of individual compound (RN), death ratio (%) (Table 9) [1]: 0%

C=CCNC(=O)Oc1ccccc1OC(C)C [Compound 85, 2-isopropoxyphenyl-N-allylcarbamate]
death ratio (%), mixture with Compound No. 1 [1]: 50.0% | death ratio (%), mixture with Compound No. 6* [1]: 45.0% | death ratio (%), mixture with Compound No. 24* [1]: 35.0% | death ratio (%), mixture with Compound No. 35* [1]: 75.0% | death ratio (%), mixture with Compound No. 40* [1]: 60.0% | death ratio (%), mixture with Compound No. 49* [1]: 0% | death ratio (%), mixture with Compound No. 81* [1]: 80.0% | death ratio (%), mixture with Compound No. 118* [1]: 35.0% | death ratio (%), mixture with Carbofuran [1]: 85.0% | death ratio (%), mixture with Methomyl [1]: 90.0% | Effect of individual compound (RN), death ratio (%) (Table 9) [1]: 25.0%

CCCNC(=O)Oc1cccc(OCC)c1 [Compound 94, 3-ethoxyphenyl-N-n-propylcarbamate]
death ratio (%), mixture with Compound No. 1 [1]: 80.0% | death ratio (%), mixture with Compound No. 6* [1]: 85.0% | death ratio (%), mixture with Compound No. 24* [1]: 95.0% | death ratio (%), mixture with Compound No. 35* [1]: 95.0% | death ratio (%), mixture with Compound No. 40* [1]: 85.0% | death ratio (%), mixture with Compound No. 49* [1]: 35.0% | death ratio (%), mixture with Compound No. 81* [1]: 95.0% | death ratio (%), mixture with Compound No. 118* [1]: 95.0% | death ratio (%), mixture with Carbofuran [1]: 90.0% | death ratio (%), mixture with Methomyl [1]: 100% | Effect of individual compound (RN), death ratio (%) (Table 9) [1]: 0%

CNC(=O)Oc1cc(C)c(N(C)C)c(C)c1 [Compound 118, 4-dimethylamino-3,5-dimethylphenyl-N-methylcarbamate, reference compound]
Effect of individual compound (RN), death ratio (%) (Table 9) [1]: 23.4%

CNC(=O)ON=C(C)SC [Methomyl, 1(methylthio)ethylideneamino-N-methylcarbamate, reference compound]
Effect of individual compound (RN), death ratio (%) (Table 9) [1]: 35.0%
